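In this assay, cells in 96-well plates receive the compound at five concentrations for 48 hours. Endpoints are linearly interpolated between the surrounding concentrations. At the GI50, growth is halved. Definition used: TGI = concentration required for complete inhibition of growth.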
What was measured:
Assay in all cases: NCI-60 cell line screen, 48 h
786-0 renal = test system: 786-0 renal
A498 renal = test system: A498 renal
A549 NSCLC = test system: A549 NSCLC
ACHN renal = test system: ACHN renal
BT-549 breast = test system: BT-549 breast
CAKI-1 renal = test system: CAKI-1 renal
CCRF-CEM leukemia = test system: CCRF-CEM leukemia
COLO 205 colon = test system: COLO 205 colon
DU-145 prostate = test system: DU-145 prostate
EKVX NSCLC = test system: EKVX NSCLC
HCC-2998 colon = test system: HCC-2998 colon
HCT-116 colon = test system: HCT-116 colon
HCT-15 colon = test system: HCT-15 colon
HL-60(TB) leukemia = test system: HL-60(TB) leukemia
HOP-62 NSCLC = test system: HOP-62 NSCLC
HOP-92 NSCLC = test system: HOP-92 NSCLC
HS 578T breast = test system: HS 578T breast
HT29 colon = test system: HT29 colon
IGROV1 ovarian = test system: IGROV1 ovarian
K-562 leukemia = test system: K-562 leukemia
KM12 colon = test system: KM12 colon
LOX IMVI melanoma = test system: LOX IMVI melanoma
M14 melanoma = test system: M14 melanoma
MALME-3M melanoma = test system: MALME-3M melanoma
MCF7 breast = test system: MCF7 breast
MDA-MB-231 breast = test system: MDA-MB-231 breast
MDA-MB-435 = test system: MDA-MB-435
MOLT-4 leukemia = test system: MOLT-4 leukemia
NCI-H226 lung = test system: NCI-H226 lung
NCI-H23 lung = test system: NCI-H23 lung
NCI-H460 lung = test system: NCI-H460 lung
NCI-H522 lung = test system: NCI-H522 lung
NCI/ADR-RES ovarian = test system: NCI/ADR-RES ovarian
OVCAR-3 ovarian = test system: OVCAR-3 ovarian
OVCAR-4 ovarian = test system: OVCAR-4 ovarian
OVCAR-5 ovarian = test system: OVCAR-5 ovarian
OVCAR-8 ovarian = test system: OVCAR-8 ovarian
PC-3 prostate = test system: PC-3 prostate
RPMI-8226 leukemia = test system: RPMI-8226 leukemia
RXF 393 renal = test system: RXF 393 renal
SF-268 CNS = test system: SF-268 CNS
SF-295 CNS = test system: SF-295 CNS
SF-539 CNS = test system: SF-539 CNS
SK-MEL-28 melanoma = test system: SK-MEL-28 melanoma
SK-MEL-5 melanoma = test system: SK-MEL-5 melanoma
SK-OV-3 ovarian = test system: SK-OV-3 ovarian
SN12C renal = test system: SN12C renal
SNB-19 CNS = test system: SNB-19 CNS
SNB-75 CNS = test system: SNB-75 CNS
SR leukemia = test system: SR leukemia
SW-620 colon = test system: SW-620 colon
T-47D breast = test system: T-47D breast
TK-10 renal = test system: TK-10 renal
U251 CNS = test system: U251 CNS
UACC-257 melanoma = test system: UACC-257 melanoma
UACC-62 melanoma = test system: UACC-62 melanoma
UO-31 renal = test system: UO-31 renal

In the case of Cc1nc2ccccc2c(N)c1-c1cc(C)c2c(C)nc3ccccc3c2n1, the GI50 (786-0 renal) is reported as 1160 nM, the TGI (786-0 renal) is reported as 2450 nM and the GI50 (A498 renal) is reported as 1730 nM. It also gave a TGI (A498 renal) of 4110 nM, a GI50 (A549 NSCLC) of 243 nM and a TGI (A549 NSCLC) of 681 nM. The GI50 (ACHN renal) was 237 nM, the TGI (ACHN renal) was 599 nM and the GI50 (BT-549 breast) was 1050 nM. It also gave a TGI (BT-549 breast) of 2460 nM, a GI50 (CAKI-1 renal) of 1550 nM and a TGI (CAKI-1 renal) of 2940 nM. For the same molecule, the GI50 (CCRF-CEM leukemia) was 362 nM, the TGI (CCRF-CEM leukemia) was 2120 nM and the GI50 (COLO 205 colon) was 817 nM. It also gave a TGI (COLO 205 colon) of 2250 nM, a GI50 (DU-145 prostate) of 479 nM and a TGI (DU-145 prostate) of 1670 nM. For the same molecule, the GI50 (EKVX NSCLC) was 1610 nM, the TGI (EKVX NSCLC) was 3290 nM and the GI50 (HCC-2998 colon) was 627 nM. It also gave a TGI (HCC-2998 colon) of 1950 nM, a GI50 (HCT-116 colon) of 257 nM and a TGI (HCT-116 colon) of 728 nM. For the same molecule, the GI50 (HCT-15 colon) was 216 nM, the TGI (HCT-15 colon) was 562 nM and the GI50 (HL-60(TB) leukemia) was 454 nM. For the same molecule, the GI50 (HOP-62 NSCLC) was 1770 nM, the TGI (HOP-62 NSCLC) was 3360 nM and the GI50 (HOP-92 NSCLC) was 1460 nM. The TGI (HOP-92 NSCLC) was 3380 nM, the GI50 (HS 578T breast) was 891 nM and the GI50 (HT29 colon) was 749 nM. It also gave a TGI (HT29 colon) of 2520 nM, a GI50 (IGROV1 ovarian) of 294 nM and a TGI (IGROV1 ovarian) of 860 nM. The GI50 (K-562 leukemia) was 256 nM, the TGI (K-562 leukemia) was greater than 100000 nM and the GI50 (KM12 colon) was 785 nM. The TGI (KM12 colon) was 2150 nM, the GI50 (LOX IMVI melanoma) was 248 nM and the TGI (LOX IMVI melanoma) was 717 nM. The GI50 (M14 melanoma) was 1340 nM, the TGI (M14 melanoma) was 2650 nM and the GI50 (MALME-3M melanoma) was 1270 nM. For the same molecule, the TGI (MALME-3M melanoma) was 2590 nM, the GI50 (MCF7 breast) was 675 nM and the TGI (MCF7 breast) was 2060 nM. It also gave a GI50 (MDA-MB-231 breast) of 298 nM, a TGI (MDA-MB-231 breast) of 904 nM and a GI50 (MDA-MB-435) of 1510 nM. It also gave a TGI (MDA-MB-435) of 2860 nM, a GI50 (MOLT-4 leukemia) of 540 nM and a GI50 (NCI-H226 lung) of 1440 nM. For the same molecule, the TGI (NCI-H226 lung) was 2940 nM, the GI50 (NCI-H23 lung) was 1560 nM and the TGI (NCI-H23 lung) was 3240 nM. The GI50 (NCI-H460 lung) was 329 nM, the TGI (NCI-H460 lung) was 1170 nM and the GI50 (NCI-H522 lung) was 2410 nM. It also gave a TGI (NCI-H522 lung) greater than 20500 nM, a GI50 (NCI/ADR-RES ovarian) of 1340 nM and a TGI (NCI/ADR-RES ovarian) of 3150 nM. It also gave a GI50 (OVCAR-3 ovarian) of 690 nM, a TGI (OVCAR-3 ovarian) of 1830 nM and a GI50 (OVCAR-4 ovarian) of 831 nM. The TGI (OVCAR-4 ovarian) was 2400 nM, the GI50 (OVCAR-5 ovarian) was 1590 nM and the TGI (OVCAR-5 ovarian) was 3060 nM. It also gave a GI50 (OVCAR-8 ovarian) of 1410 nM, a TGI (OVCAR-8 ovarian) of 2950 nM and a GI50 (PC-3 prostate) of 1020 nM. For the same molecule, the TGI (PC-3 prostate) was 3100 nM, the GI50 (RPMI-8226 leukemia) was 173 nM and the TGI (RPMI-8226 leukemia) was 520 nM. For the same molecule, the GI50 (RXF 393 renal) was 182 nM, the TGI (RXF 393 renal) was 737 nM and the GI50 (SF-268 CNS) was 628 nM. It also gave a TGI (SF-268 CNS) of 2080 nM, a GI50 (SF-295 CNS) of 1340 nM and a TGI (SF-295 CNS) of 2740 nM. The GI50 (SF-539 CNS) was 1310 nM, the TGI (SF-539 CNS) was 2590 nM and the GI50 (SK-MEL-28 melanoma) was 1610 nM. For the same molecule, the TGI (SK-MEL-28 melanoma) was 2970 nM, the GI50 (SK-MEL-5 melanoma) was 18200 nM and the TGI (SK-MEL-5 melanoma) was greater than 37400 nM. For the same molecule, the GI50 (SK-OV-3 ovarian) was 1800 nM, the TGI (SK-OV-3 ovarian) was 4720 nM and the GI50 (SN12C renal) was 1410 nM. It also gave a TGI (SN12C renal) of 2900 nM, a GI50 (SNB-19 CNS) of 1590 nM and a TGI (SNB-19 CNS) of 3390 nM. For the same molecule, the GI50 (SNB-75 CNS) was 1520 nM, the TGI (SNB-75 CNS) was 3160 nM and the GI50 (SR leukemia) was 190 nM. The TGI (SR leukemia) was 2590 nM, the GI50 (SW-620 colon) was 183 nM and the TGI (SW-620 colon) was 435 nM. The GI50 (T-47D breast) was 1780 nM, the TGI (T-47D breast) was 4040 nM and the GI50 (TK-10 renal) was 1440 nM. For the same molecule, the TGI (TK-10 renal) was 2780 nM, the GI50 (U251 CNS) was 288 nM and the TGI (U251 CNS) was 959 nM. For the same molecule, the GI50 (UACC-257 melanoma) was 1790 nM, the TGI (UACC-257 melanoma) was 3290 nM and the GI50 (UACC-62 melanoma) was 1290 nM. The TGI (UACC-62 melanoma) was 2610 nM, the GI50 (UO-31 renal) was 780 nM and the TGI (UO-31 renal) was 2260 nM.
